Among the data in patent US20050075375A1 (priority 2003, published 2005) are EC50 values, retold here.

The term EC50 denotes the concentration needed to bring the measured effect to its halfway point.

For the test, the system named is monocistronic NK5.1 HCV replicon in Huh7 cells. Nature of the test: HCV replicon assay, monocistronic replicon cell line. The test is classed as cell-based, hepatitis C virus. Particulars: Hepatitis C virus, Huh-7, 72 h, read-out: Mono EC50 Median. A digest of the protocol: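 EC50 derives from the HCV RNA/GAPDH RNA ratio by one-step TaqMan RT-PCR, relative to DMSO-only wells. Compounds (six half-log concentrations, 0.6% DMSO) were incubated 3 days at 37 °C with NK5.1 monocistronic replicon Huh7 cells plated a day earlier.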
For orientation: A replicon is a self-replicating genome or part of one, used to study replication in cells.

[1] abbreviates: Table 1, monocistronic replicon in Huh7 cells, 3 days incubation, HCV RNA/GAPDH RNA by TaqMan RT-PCR.

Read-outs that look alike come from different tables or passages of the source.

As for `Oc1ccccc1-c1cc(-c2ccccn2)on1` [Compound 123, 2-(5-Pyridin-2-yl-isoxazol-3-yl)-phenol], under setting [1], the EC50 was more than 32 µM. For the compound `COc1cccc(-c2cc(-c3ccccn3)on2)c1O` [Compound 124, 2-Methoxy-6-(5-pyridin-2-yl-isoxazol-3-yl)-phenol], under setting [1], the EC50 is 26 µM.

Turning to `COc1ccc(O)c(-c2cc(-c3ccccn3)on2)c1` [Compound 125, 4-Methoxy-2-(5-pyridin-2-yl-isoxazol-3-yl)-phenol], the concentration giving a half-maximal response (EC50) under setting [1] was determined as 11 µM. Consider `Oc1c(Cl)cc(Cl)cc1-c1cc(-c2ccccn2)on1` [Compound 127, 2,4-Dichloro-6-(5-pyridin-2-yl-isoxazol-3-yl)-phenol], for which the EC50 under setting [1] was 7.4 µM. Turning to `Oc1ccc(Br)cc1-c1cc(-c2ncccc2C(F)(F)F)on1` [Compound 128, 4-Bromo-2-[5-(3-trifluoromethyl-pyridin-2-yl)-isoxazol-3-yl]-phenol], the EC50 under setting [1] was more than 32 µM. `COc1ccc(O)c(-c2cc(-c3ncccc3C(F)(F)F)on2)c1` [Compound 129, 4-Methoxy-2-[5-(3-trifluoromethyl-pyridin-2-yl)-isoxazol-3-yl]-phenol]: the EC50 under setting [1] is 3.8 µM. The same measure, in the same setting: in the case of `Oc1ccc(Br)cc1-c1cc(-c2ccccn2)on1` [Compound 130, 4-Bromo-2-(5-pyridin-2-yl-isoxazol-3-yl)-phenol] it was 11 µM; in that of `Cc1cccnc1-c1cc(-c2cc(Br)ccc2O)no1` [Compound 131, 4-Bromo-2-[5-(3-methyl-pyridin-2-yl)-isoxazol-3-yl]-phenol], 4.5 µM; in that of `COc1ccc(O)c(-c2cc(-c3ncccc3C)on2)c1` [Compound 132, 4-Methoxy-2-[5-(3-methyl-pyridin-2-yl)-isoxazol-3-yl]-phenol], 2 µM. For `Oc1ccccc1-c1nc(-c2ccccn2)no1` [Compound 133, 2-(3-Pyridin-2-yl-[1,2,4]oxadiazol-5-yl)-phenol], the EC50 under setting [1] was more than 19 µM. Same read-out and setting: in the case of `Oc1ccc2ccccc2c1-c1nc(-c2ccccn2)no1` [Compound 134, 1-(3-Pyridin-2-yl-[1,2,4]oxadiazol-5-yl)-naphthalen-2-ol] it was 17 µM; in that of `Oc1ccc2ccccc2c1-c1nc(-c2ccccc2)no1` [Compound 135, 1-(3-Phenyl-[1,2,4]oxadiazol-5-yl)-naphthalen-2-ol], more than 32 µM. For `Oc1ccc2ccccc2c1-c1nc(-c2cc(C(F)(F)F)ccc2F)no1` [Compound 136, 1-[3-(2-Fluoro-5-trifluoromethyl-phenyl)-[1,2,4]oxadiazol-5-yl]-naphthalen-2-ol], the EC50 under setting [1] is more than 32 µM. With `O=[N+]([O-])c1cccnc1-c1noc(-c2c(O)ccc3ccccc23)n1` [Compound 137, 1-[3-(3-Nitro-pyridin-2-yl)-[1,2,4]oxadiazol-5-yl]-naphthalen-2-ol], the EC50 under setting [1] worked out at 1.8 µM. Regarding `COc1cccc(-c2nc(-c3ncccc3C(F)(F)F)no2)c1` [Compound 138, 2-[5-(3-Methoxy-phenyl)-[1,2,4]oxadiazol-3-yl]-3-trifluoromethyl-pyridine], the EC50 under setting [1] was more than 19 µM.

Take `COc1cccc(-c2nc(-c3ccccn3)no2)c1` [Compound 139, 2-[5-(3-Methoxy-phenyl)-[1,2,4]oxadiazol-3-yl]-pyridine]: the EC50 under setting [1] is 18 µM.

On to `c1ccc(-c2noc(-c3cccc4ccccc34)n2)nc1` [Compound 140, 2-(5-Naphthalen-1-yl-[1,2,4]oxadiazol-3-yl)-pyridine], for which the EC50 under setting [1] came to 7.1 µM. Same read-out and setting: the value for `O=[N+]([O-])c1ccc(-c2nc(-c3ccccn3)no2)c(Cl)c1` [Compound 141, 2-[5-(2-Chloro-4-nitro-phenyl)-[1,2,4]oxadiazol-3-yl]-pyridine] was 10 µM; that for `COc1ccc(OC)c(-c2nc(-c3ccccn3)no2)c1` [Compound 142, 2-[5-(2,5-Dimethoxy-phenyl)-[1,2,4]oxadiazol-3-yl]-pyridine] was 20 µM; that for `COc1ccc2ccccc2c1-c1nc(-c2ccccn2)no1` [Compound 143, 2-[5-(2-Methoxy-naphthalen-1-yl)-[1,2,4]oxadiazol-3-yl]-pyridine] was 13 µM. As to `Oc1ccc(Br)cc1-c1nc(-c2ccccn2)no1` [Compound 144, 4-Bromo-2-(3-pyridin-2-yl-[1,2,4]oxadiazol-5-yl)-phenol], the EC50 under setting [1] worked out at 3.7 µM. On to `Oc1ccc(Cl)cc1-c1nc(-c2ccccn2)no1` [Compound 145, 4-Chloro-2-(3-pyridin-2-yl-[1,2,4]oxadiazol-5-yl)-phenol], for which the EC50 under setting [1] is 2.3 µM. `O=[N+]([O-])c1ccc(O)c(-c2nc(-c3ccccn3)no2)c1` [Compound 146, 4-Nitro-2-(3-pyridin-2-yl-[1,2,4]oxadiazol-5-yl)-phenol]: under setting [1], the EC50 is more than 32 µM. With `COc1ccc(O)c(-c2nc(-c3ccccn3)no2)c1` [Compound 147, 4-Methoxy-2-(3-pyridin-2-yl-[1,2,4]oxadiazol-5-yl)-phenol], the EC50 under setting [1] was 4.4 µM. Turning to `O=[N+]([O-])c1cccc(-c2nc(-c3ccccn3)no2)c1` [Compound 148, 2-[5-(3-Nitro-phenyl)-[1,2,4]oxadiazol-3-yl]-pyridine], the EC50 under setting [1] was more than 19 µM.

Turning to `O=[N+]([O-])c1ccc(F)c(-c2nc(-c3ccccn3)no2)c1` [Compound 149], the EC50 under setting [1] is 4.1 µM.

As for `Oc1ccc(O)c(-c2nc(-c3ccccn3)no2)c1` [Compound 150, 2-(3-Pyridin-2-yl-[1,2,4]oxadiazol-5-yl)-benzene-1,4-diol], the EC50 under setting [1] came to 16 µM. Same read-out and setting: the value for `COc1cccc(-c2nc(-c3ccccn3)no2)c1O` [Compound 151, 2-Methoxy-6-(3-pyridin-2-yl-[1,2,4]oxadiazol-5-yl)-phenol] was 18 µM; that for `COc1ccc(-c2nc(-c3ccccn3)no2)c(O)c1` [Compound 152, 5-Methoxy-2-(3-pyridin-2-yl-[1,2,4]oxadiazol-5-yl)-phenol] was 5.6 µM. For `FC(F)(F)c1cccnc1-c1noc(-c2cccc3ccccc23)n1` [Compound 153, 2-(5-Naphthalen-1-yl-[1,2,4]oxadiazol-3-yl)-3-trifluoromethyl-pyridine], the EC50 under setting [1] stood at 7.9 µM. Take `O=[N+]([O-])c1cccnc1-c1noc(-c2cc(Cl)ccc2O)n1` [Compound 154, 4-Chloro-2-[3-(3-nitro-pyridin-2-yl)-[1,2,4]oxadiazol-5-yl]-phenol]: the EC50 under setting [1] is more than 19 µM. Take `O=[N+]([O-])c1cccnc1-c1noc(-c2cc(Br)ccc2O)n1` [Compound 155, 4-Bromo-2-[3-(3-nitro-pyridin-2-yl)-[1,2,4]oxadiazol-5-yl]-phenol]: the EC50 under setting [1] is more than 19 µM.

Regarding `O=[N+]([O-])c1cccc(-c2nc(-c3ncccc3[N+](=O)[O-])no2)c1` [Compound 156, 3-Nitro-2-[5-(3-nitro-phenyl)-[1,2,4]oxadiazol-3-yl]-pyridine], the EC50 was more than 19 µM.

Take `O=[N+]([O-])c1cccnc1-c1noc(-c2cccc3ccccc23)n1` [Compound 157, 2-(5-Naphthalen-1-yl-[1,2,4]oxadiazol-3-yl)-3-nitro-pyridine]: the EC50 under setting [1] turned out to be 4.7 µM.

Take `O=[N+]([O-])c1ccc(O)c(-c2nc(-c3ncccc3[N+](=O)[O-])no2)c1` [Compound 158, 4-Nitro-2-[3-(3-nitro-pyridin-2-yl)-[1,2,4]oxadiazol-5-yl]-phenol]: the EC50 turned out to be 11 µM. Turning to `COc1ccc(OC)c(-c2nc(-c3ncccc3[N+](=O)[O-])no2)c1` [Compound 159], under setting [1], the EC50 turned out to be 16 µM. Consider `COc1ccc(O)c(-c2nc(-c3ncccc3[N+](=O)[O-])no2)c1` [Compound 160, 4-Methoxy-2-[3-(3-nitro-pyridin-2-yl)-[1,2,4]oxadiazol-5-yl]-phenol], for which the concentration giving a half-maximal response (EC50) under setting [1] is more than 19 µM. Turning to `O=[N+]([O-])c1cccnc1-c1noc(-c2ccccc2O)n1` [Compound 161, 2-[3-(3-Nitro-pyridin-2-yl)-[1,2,4]oxadiazol-5-yl]-phenol], under setting [1], the EC50 is more than 19 µM.

For the compound `O=[N+]([O-])c1cccnc1-c1noc(-c2cc(F)ccc2O)n1` [Compound 162, 4-Fluoro-2-[3-(3-nitro-pyridin-2-yl)-[1,2,4]oxadiazol-5-yl]-phenol], the EC50 under setting [1] was 17 µM.

For the compound `CN(C)c1ccc(-c2nc(-c3ccccn3)no2)c(O)c1` [Compound 163, 5-Dimethylamino-2-(3-pyridin-2-yl-[1,2,4]oxadiazol-5-yl)-phenol], the EC50 under setting [1] turned out to be 1.5 µM.

`Oc1ccc(F)cc1-c1nc(-c2ccccn2)no1` [Compound 164, 4-Fluoro-2-(3-pyridin-2-yl-[1,2,4]oxadiazol-5-yl)-phenol]: the EC50 under setting [1] turned out to be 9 µM. In the case of `COc1cccc(-c2nc(-c3ncccc3[N+](=O)[O-])no2)c1` [Compound 165, 2-[5-(3-Methoxy-phenyl)-[1,2,4]oxadiazol-3-yl]-3-nitro-pyridine], the half-maximal effective concentration (EC50) under setting [1] turned out to be 18 µM.

For the compound `COc1cccc(-c2nc(-c3ncccc3[N+](=O)[O-])no2)c1O` [Compound 166, 2-Methoxy-6-[3-(3-nitro-pyridin-2-yl)-[1,2,4]oxadiazol-5-yl]-phenol], under setting [1], the EC50 is more than 19 µM. Take `O=[N+]([O-])c1ccc(-c2nc(-c3ncccc3[N+](=O)[O-])no2)c(Cl)c1` [Compound 167, 2-[5-(2-Chloro-4-nitro-phenyl)-[1,2,4]oxadiazol-3-yl]-3-nitro-pyridine]: the half-maximal effective concentration (EC50) was found to be 12 µM. As to `O=[N+]([O-])c1ccc(F)c(-c2nc(-c3ncccc3[N+](=O)[O-])no2)c1` [Compound 168, 2-[5-(2-Fluoro-5-nitro-phenyl)-[1,2,4]oxadiazol-3-yl]-3-nitro-pyridine], the EC50 was 4.6 µM. `COc1ccc2ccccc2c1-c1nc(-c2ncccc2[N+](=O)[O-])no1` [Compound 169]: the EC50 under setting [1] was more than 19 µM. For the compound `COc1ccc(-c2nc(-c3ncccc3[N+](=O)[O-])no2)c(O)c1` [Compound 170, 5-Methoxy-2-[3-(3-nitro-pyridin-2-yl)-[1,2,4]oxadiazol-5-yl]-phenol], under setting [1], the EC50 amounted to 12 µM.
